From article PMC8700777, “Identification of the EdcR Estrogen-Dependent Repressor in Caenibius tardaugens NBRC 16725: Construction of a Cellular Estradiol Biosensor” (Genes, 2021)

Assays:
[1] = tested on: EdcR (TetR-like repressor, EGO55_13520); test: EdcR-dependent Pb-msf-gfp reporter de-repression in E. coli DH10B (with RT-PCR in C. tardaugens ΔedcA); type: cell-based, Escherichia coli DH10B
[2] = tested on: EdcR (TetR-like repressor, EGO55_13520); test: EdcR-dependent Pb-msf-gfp reporter de-repression in E. coli DH10B; type: cell-based, Escherichia coli DH10B

| Structure (SMILES) | EC50 [1] | EC50 [2] |
| --- | --- | --- |
| C[C@]12CC[C@@H]3c4ccc(O)cc4CC[C@H]3[C@@H]1CCC2=O [E1, estrone] | 1380 nM |  |
| C[C@]12CC[C@@H]3c4ccc(O)cc4CC[C@H]3[C@@H]1CC[C@@H]2O [E2, 17β-estradiol] |  | 3.32 µM |
